Measured values published in patent publication US20210267944A1 (BioXcel Therapeutics, Inc., priority 2018, published 2021).
Structures can show the parent of a compound that is named as a salt. Where two headings read alike, the source gives them in different places.

Settings: for Diastolic blood pressure Mean ± SD / Diastolic blood pressure Median / Diastolic blood pressure Min / Heart rate Max / Heart rate Mean ± SD / Heart rate Median / Heart rate Min / Diastolic blood pressure Max / Systolic blood pressure, Max / Systolic blood pressure, Mean ± SD / Systolic blood pressure, Median / Systolic blood pressure, Min: opioid withdrawal patients
Text: The participants were continuously monitored by the site personnel, including blood pressure and heart rate, from the start of the infusion through resolution of sedation and/or any adverse effects on blood pressure or heart rate. An electrocardiogram was obtained at screening, pre-infusion and upon resolution of sedation, a predetermined reduction in COWS or return to baseline.

[1] = Day-1, 30 min. post Infusion, n=11
[2] = Day-2, 30 min. post Infusion, n=5
[3] = opioid withdrawal, during infusion

Cc1cccc([C@H](C)c2cnc[nH]2)c1C [dexmedetomidine hydrochloride]
Diastolic blood pressure Mean ± SD (Day-2, 01:15 Hr): 78.5 ± 22.5 mm of Hg | Diastolic blood pressure Median (Day-2, 01:15 Hr): 78.5 mm of Hg | Diastolic blood pressure Min (Day-2, 01:15 Hr): 56 mm of Hg | Heart rate Max (Day-2, 01:15 Hr): 100 beats/minutes | Heart rate Mean ± SD (Day-2, 01:15 Hr): 88 ± 12 beats/minutes | Heart rate Median (Day-2, 01:15 Hr): 88 beats/minutes | Heart rate Min (Day-2, 01:15 Hr): 76 beats/minutes | Diastolic blood pressure Max (Day-2, 01:30 Hr): 75 mm of Hg | Diastolic blood pressure Mean ± SD (Day-2, 01:30 Hr): 75 mm of Hg | Diastolic blood pressure Median (Day-2, 01:30 Hr): 75 mm of Hg | Diastolic blood pressure Min (Day-2, 01:30 Hr): 75 mm of Hg | Heart rate Max (Day-2, 01:30 Hr): 73 beats/minutes | Heart rate Mean ± SD (Day-2, 01:30 Hr): 73 beats/minutes | Heart rate Median (Day-2, 01:30 Hr): 73 beats/minutes | Heart rate Min (Day-2, 01:30 Hr): 73 beats/minutes | Diastolic blood pressure Max (Day-2, 01:45 Hr): 89 mm of Hg | Diastolic blood pressure Mean ± SD (Day-2, 01:45 Hr): 89 mm of Hg | Diastolic blood pressure Median (Day-2, 01:45 Hr): 89 mm of Hg | Diastolic blood pressure Min (Day-2, 01:45 Hr): 89 mm of Hg | Heart rate Max (Day-2, 01:45 Hr): 92 beats/minutes | Heart rate Mean ± SD (Day-2, 01:45 Hr): 92 beats/minutes | Heart rate Median (Day-2, 01:45 Hr): 92 beats/minutes | Heart rate Min (Day-2, 01:45 Hr): 92 beats/minutes | Diastolic blood pressure Max (Day-2, 02:00 Hr): 90 mm of Hg | Diastolic blood pressure Mean ± SD (Day-2, 02:00 Hr): 90 mm of Hg | Diastolic blood pressure Median (Day-2, 02:00 Hr): 90 mm of Hg | Diastolic blood pressure Min (Day-2, 02:00 Hr): 90 mm of Hg | Heart rate Max (Day-2, 02:00 Hr): 94 beats/minutes | Heart rate Mean ± SD (Day-2, 02:00 Hr): 94 beats/minutes | Heart rate Median (Day-2, 02:00 Hr): 94 beats/minutes | Heart rate Min (Day-2, 02:00 Hr): 94 beats/minutes | Diastolic blood pressure Max (Day-2, 30 min. post Infusion): 98 mm of Hg | Diastolic blood pressure Mean ± SD (Day-2, 30 min. post Infusion): 84.4 ± 9.24 mm of Hg | Diastolic blood pressure Median (Day-2, 30 min. post Infusion): 86 mm of Hg | Diastolic blood pressure Min (Day-2, 30 min. post Infusion): 70 mm of Hg | Heart rate Max (Day-2, 30 min. post Infusion): 90 beats/minutes | Heart rate Mean ± SD (Day-2, 30 min. post Infusion): 70.8 ± 15.72 beats/minutes | Heart rate Median (Day-2, 30 min. post Infusion): 60 beats/minutes | Heart rate Min (Day-2, 30 min. post Infusion): 56 beats/minutes | all the vital signs values (opioid withdrawal): within clinically acceptable limits | Systolic blood pressure, Max (Day-1, 00:00 Hr, n=11): 178 mm of Hg | Systolic blood pressure, Mean ± SD (Day-1, 00:00 Hr, n=11): 134 ± 15.77 mm of Hg | Systolic blood pressure, Median (Day-1, 00:00 Hr, n=11): 127 mm of Hg | Systolic blood pressure, Min (Day-1, 00:00 Hr, n=11): 120 mm of Hg | Systolic blood pressure, Max (Day-1, 00:15 Hr, n=11): 157 mm of Hg | Systolic blood pressure, Mean ± SD (Day-1, 00:15 Hr, n=11): 129.73 ± 13.68 mm of Hg | Systolic blood pressure, Median (Day-1, 00:15 Hr, n=11): 127 mm of Hg | Systolic blood pressure, Min (Day-1, 00:15 Hr, n=11): 112 mm of Hg | Systolic blood pressure, Max (Day-1, 00:30 Hr, n=9): 160 mm of Hg | Systolic blood pressure, Mean ± SD (Day-1, 00:30 Hr, n=9): 124.78 ± 15.55 mm of Hg | Systolic blood pressure, Median (Day-1, 00:30 Hr, n=9): 128 mm of Hg | Systolic blood pressure, Min (Day-1, 00:30 Hr, n=9): 107 mm of Hg | Systolic blood pressure, Max (Day-1, 00:45 Hr, n=6): 125 mm of Hg | Systolic blood pressure, Mean ± SD (Day-1, 00:45 Hr, n=6): 113 ± 8.24 mm of Hg | Systolic blood pressure, Median (Day-1, 00:45 Hr, n=6): 114 mm of Hg | Systolic blood pressure, Min (Day-1, 00:45 Hr, n=6): 100 mm of Hg | Systolic blood pressure, Max (Day-1, 01:00 Hr, n=5): 120 mm of Hg | Systolic blood pressure, Mean ± SD (Day-1, 01:00 Hr, n=5): 114 ± 4.85 mm of Hg | Systolic blood pressure, Median (Day-1, 01:00 Hr, n=5): 115 mm of Hg | Systolic blood pressure, Min (Day-1, 01:00 Hr, n=5): 107 mm of Hg | Systolic blood pressure, Max (Day-1, 01:15 Hr, n=3): 112 mm of Hg | Systolic blood pressure, Mean ± SD (Day-1, 01:15 Hr, n=3): 110 ± 1.63 mm of Hg | Systolic blood pressure, Median (Day-1, 01:15 Hr, n=3): 110 mm of Hg | Systolic blood pressure, Min (Day-1, 01:15 Hr, n=3): 108 mm of Hg | Systolic blood pressure, Max (Day-1, 01:30 Hr, n=2): 112 mm of Hg | Systolic blood pressure, Mean ± SD (Day-1, 01:30 Hr, n=2): 106.5 ± 5.5 mm of Hg | Systolic blood pressure, Median (Day-1, 01:30 Hr, n=2): 106.5 mm of Hg | Systolic blood pressure, Min (Day-1, 01:30 Hr, n=2): 101 mm of Hg | Systolic blood pressure, Max [1]: 160 mm of Hg | Systolic blood pressure, Mean ± SD [1]: 130.91 ± 18.09 mm of Hg | Systolic blood pressure, Median [1]: 129 mm of Hg | Systolic blood pressure, Min [1]: 108 mm of Hg | Systolic blood pressure, Max (Day-1, Screening, n=11): 170 mm of Hg | Systolic blood pressure, Mean ± SD (Day-1, Screening, n=11): 130.36 ± 16.92 mm of Hg | Systolic blood pressure, Median (Day-1, Screening, n=11): 127 mm of Hg | Systolic blood pressure, Min (Day-1, Screening, n=11): 110 mm of Hg | Systolic blood pressure, Max (Day-2, 00:00 Hr, n=5): 141 mm of Hg | Systolic blood pressure, Mean ± SD (Day-2, 00:00 Hr, n=5): 127.2 ± 11.37 mm of Hg | Systolic blood pressure, Median (Day-2, 00:00 Hr, n=5): 133 mm of Hg | Systolic blood pressure, Min (Day-2, 00:00 Hr, n=5): 109 mm of Hg | Systolic blood pressure, Max (Day-2, 00:15 Hr, n=5): 139 mm of Hg | Systolic blood pressure, Mean ± SD (Day-2, 00:15 Hr, n=5): 123.6 ± 13.41 mm of Hg | Systolic blood pressure, Median (Day-2, 00:15 Hr, n=5): 131 mm of Hg | Systolic blood pressure, Min (Day-2, 00:15 Hr, n=5): 103 mm of Hg | Systolic blood pressure, Max (Day-2, 00:30 Hr, n=5): 137 mm of Hg | Systolic blood pressure, Mean ± SD (Day-2, 00:30 Hr, n=5): 121.6 ± 12.15 mm of Hg | Systolic blood pressure, Median (Day-2, 00:30 Hr, n=5): 125 mm of Hg | Systolic blood pressure, Min (Day-2, 00:30 Hr, n=5): 106 mm of Hg | Systolic blood pressure, Max (Day-2, 00:45 Hr, n=4): 131 mm of Hg | Systolic blood pressure, Mean ± SD (Day-2, 00:45 Hr, n=4): 123.15 ± 9.17 mm of Hg | Systolic blood pressure, Median (Day-2, 00:45 Hr, n=4): 128 mm of Hg | Systolic blood pressure, Min (Day-2, 00:45 Hr, n=4): 108 mm of Hg | Systolic blood pressure, Max (Day-2, 01:00 Hr, n=3): 132 mm of Hg | Systolic blood pressure, Mean ± SD (Day-2, 01:00 Hr, n=3): 124.33 ± 9.46 mm of Hg | Systolic blood pressure, Median (Day-2, 01:00 Hr, n=3): 130 mm of Hg | Systolic blood pressure, Min (Day-2, 01:00 Hr, n=3): 111 mm of Hg | Systolic blood pressure, Max (Day-2, 01:15 Hr, n=2): 130 mm of Hg | Systolic blood pressure, Mean ± SD (Day-2, 01:15 Hr, n=2): 115.5 ± 14.5 mm of Hg | Systolic blood pressure, Median (Day-2, 01:15 Hr, n=2): 115.5 mm of Hg | Systolic blood pressure, Min (Day-2, 01:15 Hr, n=2): 101 mm of Hg | Systolic blood pressure, Mean ± SD (Day-2, 01:30 Hr, n=1): 114 mm of Hg | Systolic blood pressure, Median (Day-2, 01:30 Hr, n=1): 114 mm of Hg | Systolic blood pressure, Mean ± SD (Day-2, 01:45 Hr, n=1): 112 mm of Hg | Systolic blood pressure, Median (Day-2, 01:45 Hr, n=1): 112 mm of Hg | Systolic blood pressure, Mean ± SD (Day-2, 02:00 Hr, n=1): 114 mm of Hg | Systolic blood pressure, Median (Day-2, 02:00 Hr, n=1): 114 mm of Hg | Systolic blood pressure, Max [2]: 146 mm of Hg | Systolic blood pressure, Mean ± SD [2]: 127.6 ± 13.1 mm of Hg | Systolic blood pressure, Median [2]: 130 mm of Hg | Systolic blood pressure, Min [2]: 110 mm of Hg | Diastolic blood pressure mean values, in words [3]: within clinically acceptable limits | Heart rate mean values, in words [3]: within clinically acceptable limits | Systolic blood pressure mean values, in words [3]: within clinically acceptable limits | heart rate at which stopping criteria was met (opioid withdrawal, one patient, after 15 minutes): ≤ 50
